The compounds below were run on IL-15 induced P-STAT5 in human PBMC (assay: PBMC IL-15 Induced P-STAT5). Settings: human PBMC, IL-15 final 41 ng/mL; read-out: PBMC IL15_pSTAT5_IC50.
Format: cell-based
In short: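 Flow cytometry gated on total lymphocytes measured STAT5 staining (Alexa Fluor 647 antibody, overnight, 4 °C) in fixed, methanol-permeabilised human PBMC. Cells had received compound for 15 min at 37 °C (0.2% DMSO final), followed by 41 ng/mL final human IL-15 for 15 min.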

**Q.** `C=CC(=O)N1CC(CF)CC(Nc2ncnc3[nH]ccc23)C1` (mixture of isomers) [Example 102, Cis-racemic-1-[3-(fluoromethyl-5-(7H-pyrrolo[2,3-d]pyrimidin-4-ylamino)piperidin-1-yl]prop-2-en-1-one] was tested. Which IC50 did it give?
**A.** The IC50 was 237 nM.

**Q.** For `C=CC(=O)N1CC[C@@H](Nc2cnc3[nH]cc(C(=O)NCC)c3n2)[C@@H](C)C1` (racemic) [Example 37, Cis-racemic-2-{[(3S,4R)-1-acryloyl-3-methylpiperidin-4-yl]amino}-N-ethyl-5H-pyrrolo[2,3-b]pyrazine-7-carboxamide], which IC50 is on record?
**A.** The IC50 was 676 nM.

**Q.** How did the IC50 turn out when `C=CC(=O)N1CC[C@H](Nc2cnc3[nH]cc(C(=O)NCC)c3n2)C[C@H]1C` (racemic) [Example 40, Trans-racemic-2-{[(2R,4S)-1-acryloyl-2-methylpiperidin-4-yl]amino}-N-ethyl-5H-pyrrolo[2,3-b]pyrazine-7-carboxamide] was run?
**A.** The IC50 was 134 nM.

**Q.** How did the IC50 turn out when `C=CC(=O)N1CC[C@@H](Oc2cnc3[nH]cc(C(=O)N[C@@H](C)COC)c3n2)C[C@@H]1C` (racemic) [Example 71, Trans-racemic-2-{[1-acryloyl-2-methylpiperidin-4-yl]oxy}-N-[(2S)-1-methoxypropan-2-yl]-5H-pyrrolo[2,3-b]pyrazine-7-carboxamide] was run?
**A.** Its IC50 is 260 nM.

**Q.** `C=CC(=O)N1CC[C@@H](Oc2cnc3[nH]cc(C(=O)NCC)c3n2)C[C@@H]1C` (racemic) [Example 77, Trans-racemic-2-{[1-acryloyl-2-methylpiperidin-4-yl]oxy}-N-ethyl-5H-pyrrolo[2,3-b]pyrazine-7-carboxamide] was tested. Which IC50 did it give?
**A.** The IC50 was 561 nM.

**Q.** `C=CC(=O)N1C[C@H](Nc2ncnc3[nH]ccc23)CC[C@@H]1CNC(C)=O` (racemic) [Example 88, rac-N-(((2R,5R)-5-((7H-pyrrolo[2,3-d]pyrimidin-4-yl)amino)-1-acryloylpiperidin-2-yl)methyl)acetamide] was tested. Which IC50 did it give?
**A.** Its IC50 is 3450 nM.

**Q.** For `C=CC(=O)N1C[C@@H](CC#N)C[C@@H](Nc2ncnc3[nH]ccc23)C1` (racemic) [Example 105, Cis-racemic-[1-acryloyl-5-(7H-pyrrolo[2,3-d]pyrimidin-4-ylamino)piperidin-3-yl]acetonitrile], which IC50 is on record?
**A.** The IC50 was 324 nM.

**Q.** `C=CC(=O)N1CCC(Oc2cnc3[nH]cc(C(=O)NC4CCCC4)c3n2)CC1` (racemic) [Example 204, Racemic-2-[(1-acryloylpiperidin-4-yl)oxy]-N-cyclopentyl-5H-pyrrolo[2,3-b]pyrazine-7-carboxamide] was tested. Which IC50 did it give?
**A.** Its IC50 is 130 nM.

**Q.** With `C=CC(=O)N1CCC(Oc2cnc3[nH]cc(C(=O)NC(C)C4CC4)c3n2)CC1` (racemic) [Example 220, Racemic-2-[(1-acryloylpiperidin-4-yl)oxy]-N-(1-cyclopropylethyl)-5H-pyrrolo[2,3-b]pyrazine-7-carboxamide] as the compound, how does the IC50 read?
**A.** The IC50 was 100 nM.

**Q.** Which IC50 does the source give for `C=CC(=O)N1CC[C@H](Nc2cnc3[nH]cc(C(=O)NCC(C)CC(F)(F)F)c3n2)[C@H](OC)C1` (mixture of isomers) [Example 328, Racemic-2-{[(3R,4S)-1-acryloyl-3-methoxypiperidin-4-yl]amino}-N-(4,4,4-trifluoro-2-methylbutyl)-5H-pyrrolo[2,3-b]pyrazine-7-carboxamide] here?
**A.** Its IC50 is 143 nM.

**Q.** How did the IC50 turn out when `C=CC(=O)N1CCC[C@H](Nc2cnc3[nH]cc(C(=O)NCC)c3n2)C1` (single isomer, unassigned) [Example 36] was run?
**A.** Its IC50 is 176 nM.

**Q.** How did the IC50 turn out when `C=CC(=O)N1CC[C@@H](Nc2cnc3[nH]cc(C(=O)NCC)c3n2)[C@@H](C)C1` (single isomer, unassigned) [Example 38] was run?
**A.** Its IC50 is 205 nM.

**Q.** How did the IC50 turn out when `C=CC(=O)N1CC[C@H](Nc2cnc3[nH]cc(C(=O)NCC)c3n2)C[C@H]1C` (single isomer, unassigned) [Example 41] was run?
**A.** Its IC50 is 147 nM.

**Q.** How did the IC50 turn out when `C=CC(=O)N1CC[C@@H](Nc2cnc3[nH]cc(C(=O)NCC)c3n2)C[C@@H]1C` (single isomer, unassigned) [Example 42] was run?
**A.** Its IC50 is 357 nM.

**Q.** For `C=CC(=O)N1CC[C@@H](Nc2cnc3[nH]cc(C(=O)NCC)c3n2)[C@H](C)C1` (single isomer, unassigned) [Example 44], which IC50 is on record?
**A.** Its IC50 is 315 nM.

**Q.** For `C=CC(=O)N1CC[C@@H](Oc2cnc3[nH]cc(C(=O)NCC)c3n2)[C@H](C)C1` (single isomer, unassigned) [Example 47], which IC50 is on record?
**A.** The IC50 was 363 nM.

**Q.** Which IC50 does the source give for `C=CC(=O)N1CC[C@@H](Oc2cnc3[nH]cc(C(=O)N[C@@H](C)COC)c3n2)C[C@@H]1C` (single isomer, unassigned) [Example 73] here?
**A.** The IC50 was 174 nM.

**Q.** Which IC50 does the source give for `C=CC(=O)N1CC[C@@H](Oc2cnc3[nH]cc(C(=O)NCC)c3n2)C[C@@H]1C` (single isomer, unassigned) [Example 79] here?
**A.** The IC50 was 264 nM.

**Q.** With `C=CC(=O)N1C[C@@H](CF)C[C@@H](Nc2ncnc3[nH]ccc23)C1` (single isomer, unassigned) [Example 103] as the compound, how does the IC50 read?
**A.** The IC50 was 155 nM.

**Q.** For `C=CC(=O)N1C[C@@H](CC#N)C[C@@H](Nc2ncnc3[nH]ccc23)C1` (single isomer, unassigned) [Example 106], which IC50 is on record?
**A.** The IC50 was 192 nM.

**Q.** With `C=CC(=O)N1CCC(N(C)c2cnc3[nH]cc(C(=O)NC(C)C)c3n2)CC1` [Example 64, 2-[(1-acryloylpiperidin-4-yl)(methyl)amino]-N-(propan-2-yl)-5H-pyrrolo[2,3-b]pyrazine-7-carboxamide] as the compound, how does the IC50 read?
**A.** Its IC50 is 228 nM.

**Q.** `C=CC(=O)N(C)C1CN(c2cnc3[nH]cc(C(=O)N[C@H](C)COC)c3n2)C1` [Example 86, 2-{3-[acryloyl(methyl)amino]azetidin-1-yl}-N-[(2R)-1-methoxypropan-2-yl]-5H-pyrrolo[2,3-b]pyrazine-7-carboxamide] was tested. Which IC50 did it give?
**A.** The IC50 was 260 nM.

**Q.** With `C=CC(=O)N1C[C@H](COCCC#N)C[C@H](Nc2ncnc3[nH]ccc23)C1` [Example 101, 3-{[(3R,5S)-1-Acryloyl-5-(7H-pyrrolo[2,3-d]pyrimidin-4-ylamino)piperidin-3-yl]methoxy}propanenitrile] as the compound, how does the IC50 read?
**A.** The IC50 was 227 nM.

**Q.** How did the IC50 turn out when `C=CC(=O)N1C[C@H](CN2CC[C@H](C#N)C2)C[C@H](Nc2ncnc3[nH]ccc23)C1` [Example 108, (S)-1-(((3S,5S)-5-((7H-pyrrolo[2,3-d]pyrimidin-4-yl)amino)-1-acryloylpiperidin-3-yl)methyl)pyrrolidine-3-carbonitrile] was run?
**A.** Its IC50 is 3260 nM.

**Q.** For `C=CC(=O)N1CCN(c2cnc3[nH]cc(C(=O)N[C@H]4CCO[C@H]4C)c3n2)CC1(C)C` [Example 166, 3-({[2-(4-acryloyl-3,3-dimethylpiperazin-1-yl)-5H-pyrrolo[2,3-b]pyrazin-7-yl]carbonyl}amino)-2,5-anhydro-1,3,4-trideoxy-L-threo-pentitol], which IC50 is on record?
**A.** The IC50 was 168 nM.

**Q.** How did the IC50 turn out when `C=CC(=O)N1CCC(Nc2cnc3[nH]cc(C(=O)NCC4CC4)c3n2)CC1` [Example 172, 2-[(1-acryloylpiperidin-4-yl)amino]-N-(cyclopropylmethyl)-5H-pyrrolo[2,3-b]pyrazine-7-carboxamide] was run?
**A.** The IC50 was 81.3 nM.

**Q.** With `C=CC(=O)N1CCC(Nc2cnc3[nH]cc(C(=O)NCc4cccc(F)c4)c3n2)CC1` [Example 176, 2-[(1-acryloylpiperidin-4-yl)amino]-N-(3-fluorobenzyl)-5H-pyrrolo[2,3-b]pyrazine-7-carboxamide] as the compound, how does the IC50 read?
**A.** Its IC50 is 24 nM.

**Q.** Which IC50 does the source give for `C=CC(=O)N1CCC(Nc2cnc3[nH]cc(C(=O)NCCC4CC4)c3n2)CC1` [Example 178, 2-[(1-acryloylpiperidin-4-yl)amino]-N-(2-cyclopropylethyl)-5H-pyrrolo[2,3-b]pyrazine-7-carboxamide] here?
**A.** The IC50 was 88.6 nM.

**Q.** For `C=CC(=O)N1CCC(Nc2cnc3[nH]cc(C(=O)NCc4ccccc4)c3n2)CC1` [Example 187, 2-[(1-acryloylpiperidin-4-yl)amino]-N-benzyl-5H-pyrrolo[2,3-b]pyrazine-7-carboxamide], which IC50 is on record?
**A.** Its IC50 is 54.7 nM.

**Q.** Which IC50 does the source give for `C=CC(=O)N1CCC(Nc2cnc3[nH]cc(C(=O)NCc4ccc(F)cc4)c3n2)CC1` [Example 188, 2-[(1-acryloylpiperidin-4-yl)amino]-N-(4-fluorobenzyl)-5H-pyrrolo[2,3-b]pyrazine-7-carboxamide] here?
**A.** Its IC50 is 88 nM.

**Q.** With `C=CC(=O)N1CCC(Nc2cnc3[nH]cc(C(=O)NCc4ccc(F)c(C#N)c4)c3n2)CC1` [Example 189, 2-[(1-acryloylpiperidin-4-yl)amino]-N-(3-cyano-4-fluorobenzyl)-5H-pyrrolo[2,3-b]pyrazine-7-carboxamide] as the compound, how does the IC50 read?
**A.** The IC50 was 203 nM.

**Q.** With `C=CC(=O)N1CCC(Nc2cnc3[nH]cc(C(=O)NCc4ccccc4F)c3n2)CC1` [Example 196, 2-[(1-acryloylpiperidin-4-yl)amino]-N-(2-fluorobenzyl)-5H-pyrrolo[2,3-b]pyrazine-7-carboxamide] as the compound, how does the IC50 read?
**A.** The IC50 was 54.7 nM.

**Q.** How did the IC50 turn out when `C=CC(=O)N1CCC(Oc2cnc3[nH]cc(C(=O)NC45CC(C4)C5)c3n2)CC1` [Example 200, 2-[(1-acryloylpiperidin-4-yl)oxy]-N-(bicyclo[1.1.1]pent-1-yl)-5H-pyrrolo[2,3-b]pyrazine-7-carboxamide] was run?
**A.** Its IC50 is 149 nM.

**Q.** `C=CC(=O)N1CCC(Oc2cnc3[nH]cc(C(=O)N[C@@H](C)CC)c3n2)CC1` [Example 205, 2-[(1-acryloylpiperidin-4-yl)oxy]-N-[(2S)-butan-2-yl]-5H-pyrrolo[2,3-b]pyrazine-7-carboxamide] was tested. Which IC50 did it give?
**A.** Its IC50 is 92.3 nM.

**Q.** With `C=CC(=O)N1CCC(Oc2cnc3[nH]cc(C(=O)NC(C)(C)CC)c3n2)CC1` [Example 209, 2-[(1-acryloylpiperidin-4-yl)oxy]-N-(2-methylbutan-2-yl)-5H-pyrrolo[2,3-b]pyrazine-7-carboxamide] as the compound, how does the IC50 read?
**A.** Its IC50 is 206 nM.

**Q.** Which IC50 does the source give for `C=CC(=O)N1CCC(Oc2cnc3[nH]cc(C(=O)N[C@H](C)COC)c3n2)CC1` [Example 214, 2-[(1-acryloylpiperidin-4-yl)oxy]-N-[(2R)-1-methoxypropan-2-yl]-5H-pyrrolo[2,3-b]pyrazine-7-carboxamide] here?
**A.** The IC50 was 56.9 nM.

**Q.** With `C=CC(=O)N1CCC(Oc2cnc3[nH]cc(C(=O)NC4CCCC4(F)F)c3n2)CC1` (centres unmarked) [Example 219, 2-[(1-acryloylpiperidin-4-yl)oxy]-N-(2,2-difluorocyclopentyl)-5H-pyrrolo[2,3-b)pyrazine-7-carboxamide] as the compound, how does the IC50 read?
**A.** The IC50 was 134 nM.

**Q.** `C=CC(=O)N1CCC(Oc2cnc3[nH]cc(C(=O)N[C@H]4CC[C@@H](F)C4)c3n2)CC1` [Example 225, 2-[(1-acryloylpiperidin-4-yl)oxy]-N-[(1S,3R)-3-fluorocyclopentyl]-5H-pyrrolo[2,3-b]pyrazine-7-carboxamide] was tested. Which IC50 did it give?
**A.** The IC50 was 170 nM.
